Reference: PubChem BioAssay (NCI)
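Interpolation was linear, between the two tested concentrations surrounding the appropriate level; five concentrations were tested over 48 hours in 96-well plates. TGI denotes the concentration required for complete inhibition of growth.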

Key:
Experiment in all cases: NCI tumour cell line growth inhibition, 48 h
LOX IMVI melanoma = tested on: LOX IMVI melanoma
MDA-N = tested on: MDA-N
SNB-19 CNS = tested on: SNB-19 CNS

Measured: TGI

CN1C2CCC1CC(C)(O)C2 (stereo not drawn)
> 100 µM: all assays above
